Test results as given in patent US9133203B2, “Pyrroloquinazoline compounds” (OREGON HEALTH & SCIENCE UNIVERSITY, priority 2013, dated 2015).

What was measured:
MDA-MB-468 = test: MTT antiproliferation assay in MDA-MB-468 cells; type: cell-based; settings: Homo sapiens, concentration that limits growth by 50%, 72 hour incubation, mean ± SD, at least two experiments in duplicate
Method: (§1) The newly synthesized selectively mono-N-acylated compounds of series 4 and series 7 were evaluated as potential anticancer agents because compound 1 had been previously shown to display anticancer activity by inhibiting DHFR (Kuyper L F et al, J Med Chem 39, 892-903 (1996); incorporated by reference herein). Compounds of series 2 were not evaluated due to their poor solubility in DMSO. Two triple negative breast cancer (TN BC) cell lines (MDA-MB-231 and MDAMB-468) were selected to evaluate potential anticancer activity of the compounds of series 4 and series 7 by an MTT assay (Li B X et al, Bioorg Med Chem 20, 6811-6820 (2012); incorporated by reference herein.) TNBC represents a unique subtype of breast cancer clinically characterized by the lack of expression of estrogen receptor (ER), progesterone receptor (PR) and human epidermal growth factor receptor 2 (HER2). Subjects with triple negative breast cancer often have a poor prognosis (Kang S P et al, Curr Opin Obstet Gynecol 20, 40-46 (2008) and The Cancer Genome Atlas Network Nature, 490, 61-70 (2012); both of which are incorporated by reference herein). Current treatment options for TNBC are limited and novel agents are needed (Shastry M and Yardley D A, Curr Opin Obstet Gynecol 25, 40-48 (2013); incorporated by reference herein).
(§2) GI50 values represent the concentration that limits the growth of the cancer cells by 50% during a 72 hour incubation period. These are presented as mean±standard deviation of the mean of at least two independent experiments performed in duplicate.
(§3) TMTT assays for MDA-MB-231, MDA-MB-468 and HMEC were performed as described in Li et al, 2012 supra.

[1] = test system: normal human mammary epithelial cells (HMEC); test: MTT viability assay in normal human mammary epithelial cells; type: cell-based
Method: FIG. 2 is a plot showing the effect of compound 7f on normal human mammary epithelial cells (HMEC.) HMEC were treated with the indicated concentrations of doxorubicin or 7f for 24 or 72 hours as indicated. Cells treated for 24 hours were further incubated in drug free media for 48 hours. The number of viable cells was determined by an MTT assay.
as §3

[2] = Stability in HPLC mobile phase containing TFA; type: physicochemical; settings: HPLC mobile phase water/acetonitrile with 0.1% TFA
Method: The solvents used for each reaction were purified from the Glass Contout solvent purification system. Melting points were determined in capillary tubes using MeI-Temp and are uncorrected. NMR spectra were recorded at 400 MHz (^1H NMR) and 100 MHz (^13C NMR). Chemical shifts (δ) are reported in ppm relative to the residual CHCl3 (1H, 7.26 ppm, 13C, 77.0 ppm) or DMSO (1H, 2.50 ppm, 13C, 39.5 ppm). The following abbreviations were used to describe the splitting pattern of individual peaks if applicable: s=singlet, d=doublet, t=triplet, q=quartet, m=multiplet. The coupling constants (J) were reported in Hertz (Hz). Silica gel flash chromatography was performed using 230-400 mesh silica gel (EMD). The mass spectra were obtained from an LTQ Orbitrap Discovery mass spectrometer (Thermo Scientific, West Palm Beach, Fla.) with electrospray operated either in positive or negative mode. All final compounds were confirmed to be of >95% purity based on HPLC (Waters) analysis using an XBridge C18 column (4.6×150 mm) and detected at 254 nm (due to the poor solubility, compound 2a-2d were not evaluated by HPLC). The mobile phases for HPLC are water and acetonitrile, both of which contain 0.1% TFA (for compounds 2e, 4e, and 7e which contain a TBS group, 0.01% TFA was used due to instability of these compounds in 0.1% TFA).

MDA-MB-231 = test: MTT antiproliferation assay in MDA-MB-231 cells; type: cell-based; settings: Homo sapiens, concentration that limits growth by 50%, 72 hour incubation, mean ± SD, at least two experiments in duplicate
Method: as §1, §2, §3

Solubility observations = type: physicochemical; settings: high-quality 13C NMR spectra could not be obtained
[3] = test system: CREB-mediated gene transcription; test: CREB reporter assay (CRE-RLuc) in HEK 293T cells; type: cell-based, human; settings: forskolin 10 μM
Method: FIG. 4 is a plot showing the activity of compound 7f on CREB mediated gene transcription in HEK 293T cells. HEK 293T cells were transfected with a CREB renilla luciferase reporter (CRE-RLuc). Then the cells were treated with increasing concentrations of 7f for 30 min before the addition of forskolin at a final concentration of 10 μM. The cells were further incubated for 5 hours before cell lysis and renilla luciferase activity measurement. The renilla luciferase activity was normalized to the protein concentration of the cell lysates and was expressed as relative luciferase unit (RLU)/μg of proteins.
Inhibition of CREB mediated transcription in HEK 293T cells by a CREB reporter assay was performed as described in Li and Xiao, 2009 supra.

LMNA/C = test: Chemoproteomic pulldown with probe 10 and Western blot, LMNA/C; type: binding, human; settings: MDA-MB-468 cells, photocrosslinking, streptavidin pulldown, Western blot
Method: (§4) FIG. 5A is a schematic diagram of chemoproteomics experiments described in Example 38 below. MDA-MB-468 cells were treated with probe 10 with or without compound 7f. Then the cells were irradiated by UV followed by cell lysis. The lysates were clicked with a biotin-N3. The biotinylated proteins were pulled down with streptavidin beads. The bound proteins were trypsin-digested for LC-MS/MS analysis or eluted for Western analysis.
(§5) FIG. 5B is an image of a Western blot showing that 7f binds LMNA and LMNB1. The proteins from streptavidin-pulldown prepared as shown in FIG. 5A were subjected to Western blot with antibodies specific for the proteins indicated by the arrows to the right of the figure.
(§6) Unbiased chemical proteomics experiments involving photocrosslinking MDA-MB-468 cells treated with probe compound 10, clicking with a biotin-azide (biotin-N3), streptavidin pulldown and mass spectroscopic analyses identified nuclear lamins as the molecular targets of 7f. Nuclear lamins are type V intermediate filament proteins. In humans, there are three lamin genes (LMNA, LMNB1 and LMNB2) encoding four major proteins: LMNA, LMNC, LMNB1 and LMNB2. To further confirm that lamins are the targets, the biotinylated proteins prepared as shown in FIG. 5A were pulled down and analyzed by Western blot with individual antibodies (FIG. 5B).

human DHFR = biological target: T1, human DHFR (Homo sapiens, UniProt P00374); test: In vitro human DHFR inhibition; type: biochemical; settings: DHFR assay kit, NADPH 60 μM, DHF 50 μM
T1 construct: purchased Sigma
T1 sequence (P00374 1-187): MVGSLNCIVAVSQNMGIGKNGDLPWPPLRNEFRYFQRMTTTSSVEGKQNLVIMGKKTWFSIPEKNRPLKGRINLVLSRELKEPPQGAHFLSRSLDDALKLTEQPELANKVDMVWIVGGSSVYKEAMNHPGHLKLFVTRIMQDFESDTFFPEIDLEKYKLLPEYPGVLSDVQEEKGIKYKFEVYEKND
Method: The human DHFR assay was done with DHFR assay kit (Sigma) following the manufacturer's instructions with minor modifications. Different concentrations of a test compound were incubated with human DHFR (0.1875 mU) and NADPH (60 μM) in the 1× assay buffer for 2 min at room temperature. Then DHF (50 μM) was added to initiate the reduction reaction, which was immediately monitored by absorbance at 340 nm every 12 s for 3 min. The final reaction volume was 100 μL and the final DMSO concentration was 1%. The reaction velocities were calculated as the slopes from the absorbance-time curves.

LMNB1 = biological target: T2, LMNB1 (Homo sapiens, UniProt P20700); test: Chemoproteomic pulldown with probe 10 and Western blot, LMNB1; type: binding; settings: MDA-MB-468 cells, photocrosslinking, streptavidin pulldown, Western blot
T2 construct: endogenous in cells; host or cells: MDA-MB-468
T2 sequence (P20700 1-586): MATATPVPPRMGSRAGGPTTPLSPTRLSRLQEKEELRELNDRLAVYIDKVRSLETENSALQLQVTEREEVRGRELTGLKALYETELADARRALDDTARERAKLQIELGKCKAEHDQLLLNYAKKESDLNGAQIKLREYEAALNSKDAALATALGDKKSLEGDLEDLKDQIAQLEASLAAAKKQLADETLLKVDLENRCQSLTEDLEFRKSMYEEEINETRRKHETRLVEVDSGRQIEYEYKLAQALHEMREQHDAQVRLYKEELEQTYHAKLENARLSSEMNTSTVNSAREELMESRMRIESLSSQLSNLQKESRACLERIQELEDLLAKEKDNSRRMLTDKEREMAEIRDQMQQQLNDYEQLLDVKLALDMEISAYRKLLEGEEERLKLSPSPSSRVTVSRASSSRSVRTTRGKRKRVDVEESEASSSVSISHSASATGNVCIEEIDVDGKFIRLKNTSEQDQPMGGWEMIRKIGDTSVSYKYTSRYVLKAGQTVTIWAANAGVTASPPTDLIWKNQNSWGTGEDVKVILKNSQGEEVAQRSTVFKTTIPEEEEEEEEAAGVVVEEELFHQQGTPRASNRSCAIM
Method: as §4, §5, §6

| SMILES | GI50 (MDA-MB-468) | melting point | GI50 (MDA-MB-231) | further results |
| --- | --- | --- | --- | --- |
| COc1cccc2c1C(=O)c1c(O)c3c(c(O)c1C2=O)C[C@@](O)(C(=O)CO)C[C@@H]3O[C@H]1C[C@H](N)[C@H](O)[C@H](C)O1 [Dox, doxorubicin, reference compound] | 0.12 µM | – | – | concentration toxic to normal HMEC cells ([1]; toxic at a concentration as low as): ≤ 100 nM |
| CC(C)(C)[Si](C)(C)OCCCCC(=O)Nc1nc(N)c2c(ccc3[nH]ccc32)n1 [Compound 7e] | 2.24 ± 0.4 µM | 140 to 142 °C | 2.43 ± 0.13 µM | stability in 0.1% TFA [2]: instability |
| CCCC(=O)n1ccc2c3c(N)nc(N)nc3ccc21 [Compound 2c] | – | 196 to 198 °C | – | solubility (13C NMR sample) (Solubility observations): so limited |
| CC(C)C(=O)n1ccc2c3c(N)nc(N)nc3ccc21 [Compound 2d] | – | 200 to 202 °C | – | – |
| Nc1nc(N)c2c(ccc3c2ccn3C(=O)c2ccc3ccccc3c2)n1 [Compound 2f] | – | 188 to 190 °C | – | – |
| Nc1nc(N)c2c(ccc3[nH]ccc32)n1 [Compound 1, 7H-Pyrrolo[3,2-f]quinazoline-1,3-diamine, reference compound] | 3.34 ± 0.93 µM | – | 4.13 ± 0.54 µM | – |
| CCC(=O)n1ccc2c3c(N)nc(N)nc3ccc21 [Compound 2b] | – | 210 to 212 °C | – | solubility (13C NMR sample) (Solubility observations): so limited |
| CC(=O)n1ccc2c3c(N)nc(N)nc3ccc21 [Compound 2a] | – | 202 to 204 °C | – | solubility (13C NMR sample) (Solubility observations): so limited |
| CC(C)(C)[Si](C)(C)OCCCCC(=O)Nc1nc(N)nc2ccc3[nH]ccc3c12 [Compound 4e] | 11.1 ± 1.73 µM | 172 to 174 °C | 15.6 ± 7.66 µM | stability in 0.1% TFA [2]: instability |
| CC(C)(C)[Si](C)(C)OCCCCC(=O)n1ccc2c3c(N)nc(N)nc3ccc21 [Compound 2e] | – | 173 to 175 °C | – | stability in 0.1% TFA [2]: instability |
| CCCCOc1cc2ccccc2cc1C(=O)Nc1nc(N)c2c(ccc3[nH]ccc32)n1 [Compound 7g, N-(1-Amino-7H-pyrrolo[3,2-f]quinazolin-3-yl)-3-butoxy-2-naphthamide] | 0.1 ± 0.079 µM | – | 0.65 ± 0.43 µM | – |

More lines, main results first:

| GI50 (MDA-MB-468) | melting point | GI50 (MDA-MB-231) | SMILES | further results |
| --- | --- | --- | --- | --- |
| 20.3 ± 7.4 µM | 226 to 228 °C | 18.7 ± 2.24 µM | CCC(=O)Nc1nc(N)nc2ccc3[nH]ccc3c12 [Compound 4b] | – |
| 29.8 ± 8.41 µM | 288 to 290 °C | 39.7 ± 22.5 µM | CC(C)C(=O)Nc1nc(N)c2c(ccc3[nH]ccc32)n1 [Compound 7d] | – |
| 53.5 ± 29.5 µM | 260 to 262 °C | 27.2 ± 11.4 µM | CC(=O)Nc1nc(N)c2c(ccc3[nH]ccc32)n1 [Compound 7a] | – |
| 26.3 ± 7.4 µM | 224 to 226 °C | 26.9 ± 12.9 µM | CCCC(=O)Nc1nc(N)nc2ccc3[nH]ccc3c12 [Compound 4c] | – |
| 24.4 ± 3.33 µM | 228 to 230 °C | 21.4 ± 9.86 µM | CCC(=O)Nc1nc(N)c2c(ccc3[nH]ccc32)n1 [Compound 7b] | – |
| 0.44 µM | 234 to 236 °C | 1.6 µM | Nc1nc(NC(=O)c2ccc3ccccc3c2)nc2ccc3[nH]ccc3c12 [Compound 7f] | concentration up to which CREB-mediated gene transcription is not inhibited [3]: ≥ 10 µM; competition of probe 10 pulldown of LMNA/C (LMNA/C): competed; concentration up to which not toxic to normal HMEC ([1]; 72-h incubation): ≥ 5000 nM; concentration up to which human DHFR is not inhibited (human DHFR): ≥ 10 µM; competition of probe 10 pulldown of LMNB1 (LMNB1): competed |
| 8.91 ± 1.28 µM | – | 8.46 ± 2.56 µM | Nc1nc(NC(=O)c2ccc3ccccc3c2)c2c(ccc3[nH]ccc32)n1 [Compound 4f] | – |
| 56.5 ± 18 µM | 236 to 238 °C | 32.6 ± 14 µM | CC(=O)Nc1nc(N)nc2ccc3[nH]ccc3c12 [Compound 4a] | – |
| > 100 µM | – | > 100 µM | CC(C)C(=O)Nc1nc(N)nc2ccc3[nH]ccc3c12 [Compound 4d] | – |
| 27.4 ± 4.52 µM | 262 to 264 °C | 25.5 ± 9.93 µM | CCCC(=O)Nc1nc(N)c2c(ccc3[nH]ccc32)n1 [Compound 7c] | – |
